Reference: patent publication US9498483B2, “2,3,5-trisubstituted thiophene compounds and uses thereof” (priority 2010, dated 2016)

Tests used:
[1] = tested on: HCV replicon I389luc-ubi-neo/NS3-3′/ET in ET (Huh-lucubineo-ET) cells; assay: Replicon assay (Biological Example 2), luciferase readout; format: cell-based; conditions: Hepatitis C virus
Procedure, shortened: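 EC50 values come from Hill fits of % inhibition of replicon-driven firefly luciferase, relative to no-compound wells. Compounds were serially diluted (10 points, 3-fold, 0.1 nM–50 μM final, 0.5% DMSO) onto ET replicon cells and read after 48 h.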

[2] = target: T1, HCV polymerase (Hepatitis C virus genotype 1b, UniProt Q9WMX2); assay: Polymerase assay of Biological Example 1 (IC50 values of Table 3); format: biochemical; conditions: IC50 values of Table 3, polymerase assay of Biological Example 1; read-out: NS5B-enzyme3
T1 construct: (His)6 (C); made in house; host or cells: XL-1 cells (E. coli, by own knowledge)

[3] = ET cells, luciferase activity 48 hours after compound

CN(C)[C@H]1CCN(c2ccc(S(=O)(=O)N3CC(=O)N(c4cc(-c5ccccc5)sc4C(=O)O)[C@H](C4CCCCC4)C3)cn2)C1 [Compound 156, 3-{(R)-2-Cyclohexyl-4-[6-((S)-3-dimethylamino-pyrrolidin-1-yl)-pyridine-3-sulfonyl]-6-oxo-piperazin-1-yl}-5-phenyl-thiophene-2-carboxylic acid]
IC50 [1, 3]: ≤ 100 nM
IC50 [2]: 1 nM

O=C(O)c1sc(-c2ccccc2)cc1N1C(=O)CN(S(=O)(=O)c2ccc(NC3CCCCC3)nc2)CC1C1CCCCC1 (stereo not shown) [Compound 75, 3-[2-Cyclohexyl-4-(6-cyclohexylamino-pyridine-3-sulfonyl)-6-oxo-piperazin-1-yl]-5-phenyl-thiophene-2-carboxylic acid]
IC50 [1, 3]: ≤ 100 nM
IC50 [2]: 8 nM

C[C@H]1CCCN1c1ccc(S(=O)(=O)N2CC(=O)N(c3cc(-c4ccccc4)sc3C(=O)O)C(C3CCCCC3)C2)cn1 (stereo partly drawn) [Compound 119, 3-{2-Cyclohexyl-4-[6-((S)-2-methyl-pyrrolidin-1-yl)-pyridine-3-sulfonyl]-6-oxo-piperazin-1-yl}-5-phenyl-thiophene-2-carboxylic acid]
IC50 [1, 3]: ≤ 100 nM
IC50 [2]: 9 nM

O=C(O)c1sc(-c2ccccc2)cc1N1C(=O)CN(S(=O)(=O)c2ccc(N3CC[C@H](F)C3)nc2)CC1C1CCCCC1 (stereo partly drawn) [Compound 121, 3-{2-Cyclohexyl-4-[6-((S)-3-fluoro-pyrrolidin-1-yl)-pyridine-3-sulfonyl]-6-oxo-piperazin-1-yl}-5-phenyl-thiophene-2-carboxylic acid]
IC50 [1, 3]: ≤ 100 nM
IC50 [2]: 7 nM

O=C(O)c1sc(-c2ccc(Cl)cc2)cc1N1C(=O)CN(S(=O)(=O)c2ccc(N3CCCOCC3)nc2)C[C@H]1C1CCCCC1 [Compound 200, 5-(4-Chloro-phenyl)-3-[(R)-2-cyclohexyl-4-(6-[1,4]oxazepan-4-yl-pyridine-3-sulfonyl)-6-oxo-piperazin-1-yl]-thiophene-2-carboxylic acid]
IC50 [1, 3]: ≤ 100 nM
IC50 [2]: 1 nM

Cc1ccc(S(=O)(=O)N2CC(=O)N(c3cc(-c4ccccc4)sc3C(=O)O)[C@H](C3CCCCC3)C2)cc1 [Compound 18, 3-[(R)-2-Cyclohexyl-6-oxo-4-(toluene-4-sulfonyl)-piperazin-1-yl]-5-phenyl-thiophene-2-carboxylic acid]
IC50 ([1]; between 100 nM and 5.0 uM): 100 to 5000 nM
IC50 [2]: 2 nM

Cc1cc(S(=O)(=O)N2CC(=O)N(c3cc(-c4ccccc4)sc3C(=O)O)[C@H](C3CCCCC3)C2)cnc1N1CCC[C@H]1C [Compound 173, 3-{(R)-2-Cyclohexyl-4-[5-methyl-6-((R)-2-methyl-pyrrolidin-1-yl)-pyridine-3-sulfonyl]-6-oxo-piperazin-1-yl}-5-phenyl-thiophene-2-carboxylic acid]
IC50 [1, 3]: ≤ 100 nM
IC50 [2]: 1 nM

CN(C)C1CCN(c2ccc(S(=O)(=O)N3CC(=O)N(c4cc(-c5ccccc5)sc4C(=O)O)[C@H](C4CCCCC4)C3)cn2)CC1 [Compound 147, 3-[(R)-2-Cyclohexyl-4-(4-dimethylamino-3,4,5,6-tetrahydro-2H-[1,2′]bipyridinyl-5′-sulfonyl)-6-oxo-piperazin-1-yl]-5-phenyl-thiophene-2-carboxylic acid]
IC50 [1, 3]: ≤ 100 nM
IC50 [2]: 1 nM

CC1(C)CCN(c2ccc(S(=O)(=O)N3CC(=O)N(c4cc(-c5ccc(Cl)cc5)sc4C(=O)O)[C@H](C4CCCCC4)C3)cn2)C1 [Compound 292, 5-(4-Chloro-phenyl)-3-{(R)-2-cyclohexyl-4-[6-(3,3-dimethyl-pyrrolidin-1-yl)-pyridine-3-sulfonyl]-6-oxo-piperazin-1-yl}-thiophene-2-carboxylic acid]
IC50 [1, 3]: ≤ 100 nM
IC50 [2]: 2.3 nM

O=C(O)c1sc(-c2ccccc2)cc1N1C(=O)CN(Cc2ccc(N3CCCC3)nc2)C[C@H]1C1CCCCC1 [Compound 182, 3-[(R)-2-Cyclohexyl-6-oxo-4-(6-pyrrolidin-1-yl-pyridin-3-ylmethyl)-piperazin-1-yl]-5-phenyl-thiophene-2-carboxylic acid]
IC50 [1, 3]: ≤ 100 nM
IC50 [2]: 2 nM

O=C(O)c1sc(-c2ccc(Cl)cc2)cc1N1C(=O)CN(S(=O)(=O)c2ccc(N3C[C@H]4C[C@@H]3CO4)nc2)C[C@H]1C1CCCCC1 [Compound 274, 5-(4-Chloro-phenyl)-3-{(R)-2-cyclohexyl-4-[(1R,4R)-6-(2-oxa-5-aza-bicyclo[2.2.1]hept-5-yl)-pyridine-3-sulfonyl]-6-oxo-piperazin-1-yl}-thiophene-2-carboxylic acid]
IC50 [1, 3]: ≤ 100 nM
IC50 [2]: 1 nM

O=C(O)c1sc(-c2ccccc2)cc1N1C(=O)CN(S(=O)(=O)c2ccc(N3CCSCC3)nc2)CC1C1CCCCC1 (stereo not shown) [Compound 79, 3-[2-Cyclohexyl-6-oxo-4-(6-thiomorpholin-4-yl-pyridine-3-sulfonyl)-piperazin-1-yl]-5-phenyl-thiophene-2-carboxylic acid]
IC50 [1, 3]: ≤ 100 nM
IC50 [2]: 4 nM

CCC(C)S(=O)(=O)N1CC(=O)N(c2cc(-c3ccccc3)sc2C(=O)O)C(C2CCCCC2)C1 (stereo not shown) [Compound 45, 3-[4-(Butane-2-sulfonyl)-2-cyclohexyl-6-oxo-piperazin-1-yl]-5-phenyl-thiophene-2-carboxylic acid]
IC50 ([1]; between 100 nM and 5.0 uM): 100 to 5000 nM
IC50 [2]: 4900 nM

C[C@@H]1CCCCN1c1ccc(S(=O)(=O)N2CC(=O)N(c3cc(-c4ccccc4)sc3C(=O)O)[C@H](C3CCCCC3)C2)cn1 [Compound 183, 3-[(R)-2-Cyclohexyl-4-((R)-2-methyl-3,4,5,6-tetrahydro-2H-[1,2′]bipyridinyl-5′-sulfonyl)-6-oxo-piperazin-1-yl]-5-phenyl-thiophene-2-carboxylic acid]
IC50 [1, 3]: ≤ 100 nM
IC50 [2]: 1.8 nM

CCN(CC)c1ccc(S(=O)(=O)N2CC(=O)N(c3cc(-c4ccccc4)sc3C(=O)O)C(C3CCCCC3)C2)cn1 (stereo not shown) [Compound 69, 3-[2-Cyclohexyl-4-(6-diethylamino-pyridine-3-sulfonyl)-6-oxo-piperazin-1-yl]-5-phenyl-thiophene-2-carboxylic acid]
IC50 [1, 3]: ≤ 100 nM
IC50 [2]: 2 nM

CC(C)c1ccc(S(=O)(=O)N2CC(=O)N(c3cc(-c4ccccc4)sc3C(=O)O)C(C3CCCCC3)C2)cc1 (stereo not shown) [Compound 100, 3-[2-Cyclohexyl-4-(4-isopropyl-benzenesulfonyl)-6-oxo-piperazin-1-yl]-5-phenyl-thiophene-2-carboxylic acid]
IC50 ([1]; between 100 nM and 5.0 uM): 100 to 5000 nM
IC50 [2]: 4 nM

N[C@H]1CC(=O)N(c2cc(-c3ccccc3)sc2C(=O)O)[C@@H](C2CCCCC2)C1 [Compound 23, 3-((2R,4R)-4-Amino-2-cyclohexyl-6-oxo-piperidin-1-yl)-5-phenyl-thiophene-2-carboxylic acid]
IC50 [1, 3]: ≥ 5000 nM
IC50 [2]: 245 nM

O=C(O)c1sc(-c2ccccc2)cc1N1C(=O)CN(S(=O)(=O)c2ccc(N3CCN4CCCC4C3)nc2)C[C@H]1C1CCCCC1 (stereo partly drawn) [Compound 157, 3-{(R)-2-Cyclohexyl-4-[6-(hexahydro-pyrrolo[1,2-a]pyrazin-2-yl)-pyridine-3-sulfonyl]-6-oxo-piperazin-1-yl}-5-phenyl-thiophene-2-carboxylic acid]
IC50 [1, 3]: ≤ 100 nM
IC50 [2]: 1 nM

CC(C)(C)C#Cc1cc(N2C(=O)CCCC2C2CCCCC2)c(C(=O)O)s1 (stereo not shown) [Compound 19, 3-(2-Cyclohexyl-6-oxo-piperidin-1-yl)-5-(3,3-dimethyl-but-1-ynyl)-thiophene-2-carboxylic acid]
IC50 [1, 3]: ≤ 100 nM
IC50 [2]: 15 nM

CC(C)(C)C#Cc1cc(N2C(=O)[C@@](C)(CCO)OC[C@H]2C2CCCCC2)c(C(=O)O)s1 [Compound 323, 3-[(2R,5R)-5-Cyclohexyl-2-(2-hydroxy-ethyl)-2-methyl-3-oxo-morpholin-4-yl]-5-(3,3-dimethyl-but-1-ynyl)-thiophene-2-carboxylic acid]
IC50 [1, 3]: ≤ 100 nM
IC50 [2]: 3 nM

COCCNCC1OC[C@@H](C2CCCCC2)N(c2cc(C#CC(C)(C)C)sc2C(=O)O)C1=O (stereo partly drawn) [Compound 307, 3-{(R)-5-Cyclohexyl-2-[(2-methoxy-ethylamino)-methyl]-3-oxo-morpholin-4-yl}-5-(3,3-dimethyl-but-1-ynyl)-thiophene-2-carboxylic acid]
IC50 [1, 3]: ≤ 100 nM
IC50 [2]: 6 nM

O=C(O)c1sc(-c2ccccc2)cc1N1C(=O)CN(S(=O)(=O)c2ccc(-c3cccnc3)nc2)C[C@H]1C1CCCCC1 [Compound 214, 3-[(R)-4-([2,3′]Bipyridinyl-5-sulfonyl)-2-cyclohexyl-6-oxo-piperazin-1-yl]-5-phenyl-thiophene-2-carboxylic acid]
IC50 ([1]; between 100 nM and 5.0 uM): 100 to 5000 nM
IC50 [2]: 1 nM

O=C(O)c1sc(-c2ccc(F)cc2)cc1N1C(=O)CN(S(=O)(=O)c2ccc(N3C[C@H]4C[C@@H]3CO4)nc2)C[C@H]1C1CCCCC1 [Compound 273, 3-{(R)-2-Cyclohexyl-4-[(1R,4R)-6-(2-oxa-5-aza-bicyclo[2.2.1]hept-5-yl)-pyridine-3-sulfonyl]-6-oxo-piperazin-1-yl}-5-(4-fluoro-phenyl)-thiophene-2-carboxylic acid]
IC50 [1, 3]: ≤ 100 nM
IC50 [2]: 1 nM

O=C(O)c1sc(-c2ccccc2)cc1N1C(=O)CN(S(=O)(=O)c2ccc(-c3ccn[nH]3)nc2)C[C@H]1C1CCCCC1 [Compound 209, 3-{(R)-2-Cyclohexyl-6-oxo-4-[6-(2H-pyrazol-3-yl)-pyridine-3-sulfonyl]-piperazin-1-yl}-5-phenyl-thiophene-2-carboxylic acid]
IC50 ([1]; between 100 nM and 5.0 uM): 100 to 5000 nM
IC50 [2]: 1 nM

CC(C)(C)C#Cc1cc(N2C(=O)CCC[C@H]2C2CCCCC2)c(C(=O)O)s1 [Compound 35, 3-((S)-2-Cyclohexyl-6-oxo-piperidin-1-yl)-5-(3,3-dimethyl-but-1-ynyl)-thiophene-2-carboxylic acid]
IC50 [1, 3]: ≤ 100 nM
IC50 [2]: 9.5 nM

CNC(=O)c1ccc(S(=O)(=O)N2CC(=O)N(c3cc(-c4ccccc4)sc3C(=O)O)C(C3CCCCC3)C2)cc1 (stereo not shown) [Compound 98, 3-[2-Cyclohexyl-4-(4-methylcarbamoyl-benzenesulfonyl)-6-oxo-piperazin-1-yl]-5-phenyl-thiophene-2-carboxylic acid]
IC50 ([1]; between 100 nM and 5.0 uM): 100 to 5000 nM
IC50 [2]: 3 nM
